Data as given in ChEMBL document CHEMBL1148319, “A molecular basis for the selectivity of thiadiazole urea inhibitors with stromelysin-1 and gelatinase-A from generalized born molecular dynamics simulations” (J Med Chem, 2004).

biological target: 72 kDa type IV collagenase (Homo sapiens, UniProt P08253)
Sequence (P08253 whole entry): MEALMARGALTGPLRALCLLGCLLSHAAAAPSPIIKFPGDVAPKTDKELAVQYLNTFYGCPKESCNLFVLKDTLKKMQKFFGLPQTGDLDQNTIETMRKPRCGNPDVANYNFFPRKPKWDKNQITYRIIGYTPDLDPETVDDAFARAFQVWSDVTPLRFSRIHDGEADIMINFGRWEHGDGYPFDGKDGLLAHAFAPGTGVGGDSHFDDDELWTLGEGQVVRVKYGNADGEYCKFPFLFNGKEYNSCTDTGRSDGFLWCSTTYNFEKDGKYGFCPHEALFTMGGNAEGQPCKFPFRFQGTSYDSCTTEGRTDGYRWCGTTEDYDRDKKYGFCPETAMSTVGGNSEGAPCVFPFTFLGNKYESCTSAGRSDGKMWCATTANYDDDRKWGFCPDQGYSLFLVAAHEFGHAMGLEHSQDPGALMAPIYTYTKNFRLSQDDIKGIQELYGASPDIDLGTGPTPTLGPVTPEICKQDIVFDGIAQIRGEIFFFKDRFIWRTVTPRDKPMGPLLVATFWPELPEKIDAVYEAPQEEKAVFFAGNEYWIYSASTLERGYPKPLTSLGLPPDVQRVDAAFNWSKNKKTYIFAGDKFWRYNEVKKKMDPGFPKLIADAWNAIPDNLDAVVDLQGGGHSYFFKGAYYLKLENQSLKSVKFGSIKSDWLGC
Description: Inhibition of human Matrix metalloprotease-2 (gelatinase-A)

| Ki [µM] | SMILES |
| --- | --- |
| 3 | CNC(=O)[C@H](Cc1ccccc1)NC(=O)Nc1nnc(S)s1 |
| > 200 | CNC(=O)[C@H](CO)NC(=O)Nc1n[nH]c(=S)s1 |
| 3 | CNC(=O)[C@H](Cc1c(F)c(F)c(F)c(F)c1F)NC(=O)Nc1nnc(S)s1 |
| > 200 | NC(=O)[C@H](Cc1ccccc1)NC(=O)Nc1nnc(S)s1 |
| > 100 | CNC(=O)CNC(=O)Nc1n[nH]c(=S)s1 |
| 226 | CN(C)C(=O)[C@H](Cc1ccccc1)NC(=O)Nc1nnc(S)s1 |
